Source: US8574563B2 (Bristol-Myers Squibb Company, priority 2006, dated 2013)

Test system: HCV 1b-377-neo replicon cells
Experiment: HCV replicon assay, HCV 1b-377-neo replicon cells (1b FRET)
Format: cell-based, Hepatitis C virus genotype 1b
Settings: HCV 1b-377-neo replicon cells; HCV 1b genotype; read-out: EC50 range against HCV 1b (Table 2, Range)
Method in brief: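 Compounds were tested in genotype 1b subgenomic replicon cells carrying a neomycin marker, alongside a matched replicon line with an NS5A Y2065H substitution that confers resistance to a reference NS5A inhibitor.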

Row | Structure (SMILES) | EC50 [nM]
1 | O=C(OCc1ccccc1)N1CCN(C(C(=O)N2CCC[C@H]2c2ncc(-c3ccc(-c4ccc(-c5c[nH]c([C@@H]6CCCN6C(=O)[C@H]6CCCO6)n5)cc4)cc3)[nH]2)c2ccccc2)CC1 (single isomer, unassigned) [Example 103-6] | 1 to 99

Same assay, conditions: Hepatitis C virus, HCV 1b-377-neo replicon cells; HCV 1b genotype; read-out: EC50 range against HCV 1b (Table 2, Range)

Row | Structure (SMILES) | EC50 [nM]
2 | O=C(C(c1ccccc1)c1ccccc1)N1CCC[C@H]1c1ncc(-c2ccc(-c3ccc(-c4cnc([C@@H]5CCCN5C(=O)[C@@H](c5ccccc5)N5CCCCC5)[nH]4)cc3)cc2)[nH]1 [Example 107-6, 1-((1R)-2-((2S)-2-(5-(4′-(2-((2S)-1-(diphenylacetyl)-2-pyrrolidinyl)-1H-imidazol-5-yl)-4-biphenylyl)-1H-imidazol-2-yl)-1-pyrrolidinyl)-2-oxo-1-phenylethyl) piperidine] | 0.001 to 0.999
3 | COC(=O)N[C@](C)(C(=O)N1CCC[C@H]1c1nc(-c2ccc(-c3ccc(-c4cnc([C@@H]5CCCN5C(=O)[C@@](C)(NC(=O)OC)C(C)C)[nH]4)cc3)cc2)c[nH]1)C(C)C [Example F37, methyl ((1S)-1-(((2S)-2-(4-(4′-(2-((2S)-1-((2S)-2-((methoxycarbonyl)amino)-2,3-dimethylbutanoyl)-2-pyrrolidinyl)-1H-imidazol-5-yl)-4-biphenylyl)-1H-imidazol-2-yl)-1-pyrrolidinyl)carbonyl)-1,2-dimethylpropyl)carbamate] | 100 to 999
4 | COC(=O)N[C@H](C(=O)N1[C@H](c2ncc(-c3ccc(-c4ccc(-c5cnc([C@@H]6C[C@@H]7C[C@@H]7N6C(=O)[C@@H](NC(=O)OC)C6CC6)[nH]5)cc4)cc3)[nH]2)C[C@@H]2C[C@@H]21)C1CC1 [Example M127, dimethyl (4,4′-biphenyldiylbis(1H-imidazole-5,2-diyl(1S,3S,5S)-2-azabicyclo[3.1.0]hexane-3,2-diyl((1S)-1-cyclopropyl-2-oxo-2,1-ethanediyl)))biscarbamate] | 1 to 99
5 | CCN(CC)[C@@H](C(=O)N1CCC[C@H]1c1ncc(-c2ccc(-c3cc(F)c(-c4cnc([C@@H]5CCCN5C(=O)[C@@H](c5ccccc5)N(CC)CC)[nH]4)cc3F)cc2)[nH]1)c1ccccc1 [Example D54, (1R1′R)-2,2′-((2,5-difluoro-4,4′-biphenyldiyl)bis(1H-imidazole-5,2-diyl(2S)-2,1-pyrrolidinediyl))bis (N,N-diethyl-2-oxo-1-phenylethanamine)] | 0.001 to 0.999
6 | O=C([C@@H](O)C1CCCCC1)N1CCC[C@H]1c1ncc(-c2ccc(-c3ccc(-c4cnc([C@@H]5CCCN5C(=O)[C@@H](O)C5CCCCC5)[nH]4)cc3)cc2)[nH]1 [LS2, (1S,1′S)-2,2′-(4,4′-biphenyldiylbis(1H-imidazole-5,2-diyl(2S)-2,1-pyrrolidinediyl))bis(1-cyclohexyl-2-oxoethanol)] | 1 to 99
7 | CCN(C)[C@@H](C(=O)N1CCC[C@H]1c1ncc(-c2ccc(-c3ccc(-c4cnc([C@@H]5CCCN5C(=O)[C@H](C)NC(=O)OC)[nH]4)cc3)cc2)[nH]1)c1ccccc1 [Example M99, methyl ((1S)-2-((2S)-2-(5-(4′-(2-((2S)-1-((2R)-2-(ethyl(methyl)amino)-2-phenylacetyl)-2-pyrrolidinyl)-1H-imidazol-5-yl)-4-biphenylyl)-1H-imidazol-2-yl)-1-pyrrolidinyl)-1-methyl-2-oxoethyl)carbamate] | 1 to 99
8 | COC(=O)N[C@@H](C)C(=O)N1CCC[C@H]1c1ncc(-c2ccc(-c3ccc(-c4cnc([C@@H]5CCCN5C(=O)[C@H](Cc5ccc(O)cc5)NC(=O)OC)[nH]4)cc3)cc2)[nH]1 [cj-113, methyl ((1S)-1-(4-hydroxybenzyl)-2-((2S)-2-(5-(4′-(2-((2S)-1-(N-(methoxycarbonyl)-L-alanyl)-2-pyrrolidinyl)-1H-imidazol-5-yl)-4-biphenylyl)-1H-imidazol-2-yl)-1-pyrrolidinyl)-2-oxoethyl)carbamate] | 0.001 to 0.999
9 | COC(=O)N[C@@H](C)C(=O)N1[C@H](c2ncc(-c3ccc(-c4ccc(-c5cnc([C@@H]6C[C@@H]7C[C@@H]7N6C(=O)[C@H](C)NC(=O)OC)[nH]5)cc4)cc3)[nH]2)C[C@@H]2C[C@@H]21 [Example M130, methyl ((1S)-2-((1S,3S,5S)-3-(5-(4′-(2-((1S,3S,5S)-2-(N-(methoxycarbonyl)-L-alanyl)-2-azabicyclo[3.1.0]hex-3-yl)-1H-imidazol-5-yl)-4-biphenylyl)-1H-imidazol-2-yl)-2-azabicyclo[3.1.0]hex-2-yl)-1-methyl-2-oxoethyl)carbamate] | 1 to 99
10 | COC(=O)N[C@H](C(=O)N1CCC[C@H]1c1ncc(-c2ccc(-c3ccc(-c4cnc([C@@H]5CCCN5C(=O)[C@H](NC(=O)OC)c5ccccc5)[nH]4)cc3)cc2)[nH]1)C(C)C [Example M80, methyl ((1S)-1-(((2S)-2-(5-(4′-(2-((2S)-1-((2R)-2-((methoxycarbonyl)amino)-2-phenylacetyl)-2-pyrrolidinyl)-1H-imidazol-5-yl)-4-biphenylyl)-1H-imidazol-2-yl)-1-pyrrolidinyl)carbonyl)-2-methylpropyl)carbamate] | 1 to 99
11 | COC(=O)N[C@@H](C(=O)N1CCC[C@H]1c1ncc(-c2ccc(-c3ccc(-c4cnc([C@@H]5CCCN5C(=O)Cc5csc(C)n5)[nH]4)cc3)cc2)[nH]1)c1ccccc1 [Example 84-72, methyl ((1R)-2-((2S)-2-(5-(4′-(2-((2S)-1-((2-methyl-1,3-thiazol-4-yl)acetyl)-2-pyrrolidinyl)-1H-imidazol-5-yl)-4-biphenylyl)-1H-imidazol-2-yl)-1-pyrrolidinyl)-2-oxo-1-phenylethyl)carbamate] | 1 to 99
12 | COC(=O)N[C@@H](C(=O)N1CCC[C@H]1c1ncc(-c2ccc(-c3ccc(-c4cnc([C@@H]5CCCN5C(=O)[C@@H](c5ccccc5Cl)N(C)C)[nH]4)cc3)cc2)[nH]1)c1ccccc1Cl [Example 107-44, methyl ((1R)-1-(2-chlorophenyl)-2-((2S)-2-(5-(4′-(2-((2S)-1-((2R)-2-(2-chloro-phenyl)-2-(dimethylamino)acetyl)-2-pyrrolidinyl)-1H-imidazol-5-yl)-4-biphenylyl)-1H-imidazol-2-yl)-1-pyrrolidinyl)-2-oxoethyl) carbamate] | 0.001 to 0.999
13 | COC(=O)N[C@H](C(=O)N1CCC[C@H]1c1ncc(-c2ccc(-c3ccc(-c4cnc([C@@H]5CCCN5C(=O)[C@@H](NC(=O)OC)C(C)(C)C)[nH]4)cc3)cc2)[nH]1)C(C)(C)C [Example M24, methyl ((1S)-1-(((2S)-2-(5-(4′-(2-((2S)-1-((2S)-2-((methoxycarbonyl)amino)-3,3-dimethylbutanoyl)-2-pyrrolidinyl)-1H-imidazol-5-yl)-4-biphenylyl)-1H-imidazol-2-yl)-1-pyrrolidinyl)carbonyl)-2,2-dimethylpropyl)carbamate] | 1 to 99
14 | COC(=O)N[C@@H](C)C(=O)N1CCC[C@H]1c1ncc(-c2ccc(-c3ccc(-c4cnc([C@@H]5CCCN5C(=O)[C@@H]5CCC[C@H]5NC(=O)OC)[nH]4)cc3)cc2)[nH]1 [cj-108, methyl ((1R,2R)-2-(((2S)-2-(5-(4′-(2-((2S)-1-(N-(methoxycarbonyl)-L-alanyl)-2-pyrrolidinyl)-1H-imidazol-5-yl)-4-biphenylyl)-1H-imidazol-2-yl)-1-pyrrolidinyl)carbonyl)cyclopentyl)carbamate] | 0.001 to 0.999
15 | COC(=O)N[C@H](C(=O)N1CC(F)(F)C[C@H]1c1ncc(-c2ccc(-c3ccc(-c4cnc([C@@H]5CC(F)(F)CN5C(=O)[C@@H](NC(=O)OC)[C@@H](C)OC)[nH]4)cc3)cc2)[nH]1)[C@@H](C)OC [OL-10, methyl ((1S,2R)-1-(((2S)-2-(4-(4′-(2-((2S)-4,4-difluoro-1-(N-(methoxycarbonyl)-O-methyl-L-threonyl)-2-pyrrolidinyl)-1H-imidazol-4-yl)-4-biphenylyl)-1H-imidazol-2-yl)-4,4-difluoro-1-pyrrolidinyl)carbonyl)-2-methoxypropyl)carbamate] | 0.001 to 0.999
16 | CC(=O)N[C@@H](C(=O)N1[C@@H]2C[C@@H]2C[C@H]1c1nc(-c2ccc(-c3ccc(-c4c[nH]c([C@@H]5C[C@H]6C[C@H]6N5C(=O)[C@H](NC(C)=O)C(C)C)n4)cc3)cc2)c[nH]1)C(C)C [Example M143, N-((1R)-1-(((1R,3S,5R)-3-(4-(4′-(2-((1R,3S,5R)-2-((2R)-2-acetamido-3-methylbutanoyl)-2-azabicyclo[3.1.0]hex-3-yl)-1H-imidazol-4-yl)-4-biphenylyl)-1H-imidazol-2-yl)-2-azabicyclo[3.1.0]hex-2-yl)carbonyl)-2-methylpropyl)acetamide] | 1 to 99
17 | COC(=O)N[C@H](C(=O)N1CCC[C@H]1c1nc(-c2cnc(-c3ccc(-c4cnc([C@@H]5CCCN5C(=O)[C@@H](NC(=O)OC)C(C)C)[nH]4)cc3)nc2)c[nH]1)C(C)C [Example D74, methyl ((1S)-1-(((2S)-2-(5-(2-(4-(2-((2S)-1-((2S)-2-((methoxycarbonyl)amino)-3-methylbutanoyl)-2-pyrrolidinyl)-1H-imidazol-5-yl)phenyl)-5-pyrimidinyl)-1H-imidazol-2-yl)-1-pyrrolidinyl)carbonyl)-2-methylpropyl)carbamate] | 0.001 to 0.999
18 | COC(=O)N[C@@H]1CCCC[C@@H]1C(=O)N1CCC[C@H]1c1ncc(-c2ccc(-c3ccc(-c4cnc([C@@H]5CCCN5C(=O)[C@H]5CCCC[C@H]5NC(=O)OC)[nH]4)cc3)cc2)[nH]1 [cj-141, dimethyl (4,4′-biphenyldiylbis(1H-imidazole-5,2-diyl(2S)-2,1-pyrrolidinediylcarbonyl(1R,2S)-2,1-cyclohexanediyl))biscarbamate] | 1000 to 10000
19 | CCN(CC)[C@H]1CC[C@@H](C(=O)N2CCC[C@H]2c2ncc(-c3ccc(-c4ccc(-c5cnc([C@@H]6CCCN6C(=O)[C@@H](NC(=O)OC)[C@@H](C)OC)[nH]5)cc4)cc3)[nH]2)CC1 [cj-72, methyl ((1S,2R)-1-(((2S)-2-(5-(4′-(2-((2S)-1-((cis-4-(diethylamino)cyclohexyl)carbonyl)-2-pyrrolidinyl)-1H-imidazol-5-yl)-4-biphenylyl)-1H-imidazol-2-yl)-1-pyrrolidinyl)carbonyl)-2-methoxypropyl)carbamate] | 0.001 to 0.999
